Holding throughout (assay type): cell-based
The test system of test [1] is Streptococcus pyogenes: unknown strain, hospital isolate. The following applies: for inhibitory or bacteriostatic activity: S. pyogenes; for MBC / MIC: unknown strain, hospital isolate. The procedure: (§1) Microtiter broth dilution assays. HP2, HP3, and HP5 peptides are comprised of novel sequences that have not yet been described in the AMP literature. A common method for establishing antimicrobial activity of peptides is to perform microtiter broth assays. Microtiter broth dilution methods were implemented for determination of the minimum inhibitory concentration (MIC) and minimum bactericidal concentration (MBC). HP3 and HP5 were tested in addition to Ranatuerin-1/HP4 peptide as a positive control. HP2 could not be tested because multiple peptide synthesis attempts failed. The human cathelicidin, LL-37^30 was used as an additional positive control, and an unrelated similarly sized cationic peptide from the T. pallidum protein Tp0751 was used as a negative control. The potential AMPs were tested against bacteria representative of all three types of known cell envelope (Gram-positive, negative, and the complex and unique mycobacterial cell wall/envelope), given that a major mechanism used by AMPs is cell wall/membrane targeting.
(§2) Microtiter broth dilution assays. To test for antimicrobial activity, HP3, HP4/Ranatuerin-1, and HP5, peptides were synthesized by GenScript (Piscataway, New Jersey, USA). HP2 was not tested because the service provider was unable to synthesize this peptide despite multiple attempts. An unrelated, similarly-sized peptide from the Treponema pallidum protein Tp0751^55 was used as a negative control and the human cathelicidin, LL-37^30, was included as a positive control. Peptides were dissolved in filter-sterilized ultrapure water and tested for sterility by plating on non-selective agar plates followed by a 48 h incubation at 37° C. Two-fold serial dilutions of each peptide were prepared to obtain a series corresponding to ten times the required testing concentrations (2560, 1280, 640, 320, 160, 80, 40, 20, 10, and 5 μg/mL)^29.
(§3) Microtiter broth dilution methods were implemented for determination of the minimum inhibitory concentration (MIC) and minimum bactericidal concentration (MBC) of the four putative AMPs and the negative control peptide using procedures adapted from the R.E.W. Hancock Laboratory for cationic AMPs^29 and the CLSI methods for dilution antimicrobial susceptibility tests^56.
(§4) To assess antimicrobial activity across a diverse range of bacterial species, colonies were cultured overnight on Mueller Hinton agar plates (MHA; +5% sheep blood for S. pyogenes)^56 from frozen glycerol stock. Bacteria tested include Gram-negative rods (Escherichia coli: ATCC 9723H; Pseudomonas aeruginosa: ATCC 10148), Gram-positive cocci (Staphylococcus aureus: ATCC 6538P; Streptococcus pyogenes: unknown strain, hospital isolate), and Mycobacterium smegmatis (MC^2155; classified as neither Gram-positive nor Gram-negative). Bacterial suspensions were prepared by placing 3-5 morphologically similar colonies from the grown plate into sterile glass culture tubes containing 2 mL of Mueller Hinton Broth (MHB; +5% lysed horse blood for S. pyogenes) 56. Microbial inoculums from bacterial suspensions were prepared through a spectrophotometric adjustment of turbidity to 0.08-0.1 at 600 nm to achieve a turbidity equivalent to that of a 0.5 McFarland standard (1-2×10^8 CFU/mL)^29. The standardized bacterial inoculums were then diluted in MHB to obtain final cell densities of approximately […].
(§5) Ninety-six-well microtiter plates (Fisher Cat. No. CS003790; Nepean, Ontario, Canada) were prepared with 100 μL of E. coli, P. aeruginosa, S. aureus, S. pyogenes, or M. smegmatis bacterial suspension (5×10^5 CFU/mL) dispensed into each well of columns 1 through 11. Eleven microliters of the 10×AMP dilution series for all four peptides were added to each well from column 1 (2560 μg/mL) to column 10 (5 μg/mL) in all plates. Column 11 functioned as a positive control for bacterial growth in the absence of AMPs. Column 12 in each plate contained 100 μL of MHB as a sterility control (+5% lysed horse blood for S. pyogenes)^56. […]

The test system of test [2] is Pseudomonas aeruginosa: ATCC 10148. The method, then: as §1, §2, §3, §4, §5
The subject of test [3] is Staphylococcus aureus: ATCC 6538P. The method, then: as §1, §2, §3, §4, §5
Test [4] has as its system Escherichia coli: ATCC 9723H. The method, then: as §1, §2, §3, §4, §5
The test system of test [5] is Mycobacterium smegmatis (MC^2155). The method, then:
as §1, §2, §3, §4, §5

In brackets after ≈: the same amount, converted by molar mass. Read-outs that look alike come from different tables or passages of the source. Bridge positions count the residues as written; N and C are the ends. Peptide text beside a SMILES is read from it. Some results are limits rather than exact numbers.

The MBC is the lowest tested concentration that kills the bacteria rather than only halting them. Low readings indicate greater bactericidal potency, high ones weaker bactericidal potency. In general, MIC refers to the least concentration at which growth counts as inhibited. As for `CC(C)C[C@H](NC(=O)[C@H](CS)NC(=O)[C@@H]1CCCN1C(=O)[C@H](CCCCN)NC(=O)[C@H](CCCNC(=N)N)NC(=O)[C@@H]1CCCN1C(=O)[C@H](Cc1ccccc1)NC(=O)[C@H](CO)NC(=O)[C@H](CCCCN)NC(=O)[C@@H](NC(=O)[C@H](Cc1c[nH]c2ccccc12)NC(=O)[C@H](CS)NC(=O)CNC(=O)[C@H](CO)NC(=O)[C@H](CC(C)C)NC(=O)[C@@H](N)CO)[C@@H](C)O)C(=O)N[C@@H](CCCNC(=N)N)C(=O)N[C@@H](CC(N)=O)C(=O)N[C@@H](CCCNC(=N)N)C(=O)O` [HP3, SLSGCWTKSFPRKPCLRNR] (H-SLSGCWTKSFPRKPCLRNR-OH; N-terminus and C-terminus assumed), the “inhibitory or bacteriostatic activity” value in test [1], in test [2] (P. aeruginosa), in test [3] (S. aureus) and in test [4] (E. coli) was “no effect” in each case. The MBC in test [1], in test [2] (ATCC 10148), in test [3] (ATCC 6538) and in test [4] (ATCC 9723) was >256 mg/L in each case. Moreover, the MIC in test [1], in test [2] (ATCC 10148), in test [3] (ATCC 6538) and in test [4] (ATCC 9723) was >256 mg/L in each case.

Turning to `CC[C@H](C)[C@H](NC(=O)[C@H](CCCCN)NC(=O)[C@H](CS)NC(=O)[C@H](C)NC(=O)[C@@H](NC(=O)[C@H](Cc1ccccc1)NC(=O)CNC(=O)[C@H](CC(C)C)NC(=O)CNC(=O)[C@@H](NC(=O)[C@H](CCCCN)NC(=O)CNC(=O)[C@H](CC(C)C)NC(=O)[C@H](CC(N)=O)NC(=O)[C@H](CCCCN)NC(=O)[C@H](CC(C)C)NC(=O)[C@@H](NC(=O)[C@H](CO)NC(=O)[C@H](CC(C)C)NC(=O)[C@H](CCSC)NC(=O)[C@@H](N)CO)C(C)C)C(C)C)C(C)C)C(=O)N[C@@H](CC(N)=O)C(=O)N[C@@H](CCCCN)C(=O)N[C@@H](CCC(N)=O)C(=O)N[C@@H](CS)C(=O)O` [HP4] (H-SMLSVLKNLGKVGLGFVACKINKQC-OH; N-terminus and C-terminus assumed), the “inhibitory or bacteriostatic activity” value in test [1] and in test [2] (P. aeruginosa) was “no effect” in each case. Also, the MBC in test [1] and in test [2] (ATCC 10148) was >256 mg/L throughout. Moreover, the minimal inhibitory concentration (MIC) was >256 mg/L in test [1]; >256 mg/L in test [2] (ATCC 10148); 97 µM in test [3] (ATCC 6538); 256 mg/L in test [3] (S. aureus, listed as H4); 48 µM in test [4] (ATCC 9723); 128 mg/L in test [4] (E. coli, listed as H4).

As to `CC[C@H](C)[C@H](NC(=O)[C@H](CC(C)C)NC(=O)[C@H](CCCCN)NC(=O)[C@H](CCCCN)NC(=O)[C@H](CS)NC(=O)[C@H](CCCNC(=N)N)NC(=O)[C@H](CCC(=O)O)NC(=O)[C@@H](NC(=O)[C@@H]1CCCN1C(=O)[C@@H](NC(=O)[C@H](CCC(=O)O)NC(=O)[C@H](CO)NC(=O)[C@H](CS)NC(=O)[C@H](CCC(=O)O)NC(=O)[C@H](CCC(=O)O)NC(=O)[C@H](CCCCN)NC(=O)[C@@H](NC(=O)[C@H](CC(C)C)NC(=O)[C@H](CCC(=O)O)NC(=O)[C@H](CCC(=O)O)NC(=O)[C@H](CC(C)C)NC(=O)[C@H](C)NC(=O)[C@H](CCCNC(=N)N)NC(=O)[C@H](CC(C)C)NC(=O)[C@H](CC(N)=O)NC(=O)[C@H](CO)NC(=O)[C@@H]1CCCN1C(=O)[C@@H](N)CC(N)=O)C(C)C)[C@@H](C)CC)C(C)C)C(=O)N[C@@H](Cc1ccc(O)cc1)C(=O)NCC(=O)N[C@@H](Cc1ccc(O)cc1)C(=O)N[C@@H](CCCNC(=N)N)C(=O)N[C@@H](CCCCN)C(=O)O` [HP5] (H-NPSNLRALEELVKEECSEIPVERCKKLIYGYRK-OH; N-terminus and C-terminus assumed), the “inhibitory or bacteriostatic activity” value in test [1], in test [2] (P. aeruginosa), in test [3] (S. aureus) and in test [4] (E. coli) was “no effect” in each case. In addition, the MBC in test [1], in test [2] (ATCC 10148), in test [3] (ATCC 6538) and in test [4] (ATCC 9723) was >256 mg/L in each case. The MIC in test [1], in test [2] (ATCC 10148), in test [3] (ATCC 6538) and in test [4] (ATCC 9723) was >256 mg/L throughout. The “bacteriostatic and bacteriocidal activity” value in test [5] (M. smegmatis) is “weak bacteriostatic and bacteriocidal activity”.

With `CC[C@H](C)[C@H](NC(=O)[C@H](CCCCN)NC(=O)[C@H](CCC(=O)O)NC(=O)[C@H](CCCCN)NC(=O)[C@H](CO)NC(=O)[C@H](CCCCN)NC(=O)[C@H](CCCNC(=N)N)NC(=O)[C@H](Cc1ccccc1)NC(=O)[C@H](Cc1ccccc1)NC(=O)[C@H](CC(=O)O)NC(=O)CNC(=O)[C@H](CC(C)C)NC(=O)[C@@H](N)CC(C)C)C(=O)NCC(=O)N[C@@H](CCCCN)C(=O)N[C@@H](CCC(=O)O)C(=O)N[C@@H](Cc1ccccc1)C(=O)N[C@@H](CCCCN)C(=O)N[C@@H](CCCNC(=N)N)C(=O)N[C@H](C(=O)N[C@H](C(=O)N[C@@H](CCC(N)=O)C(=O)N[C@@H](CCCNC(=N)N)C(=O)N[C@H](C(=O)N[C@@H](CCCCN)C(=O)N[C@@H](CC(=O)O)C(=O)N[C@@H](Cc1ccccc1)C(=O)N[C@@H](CC(C)C)C(=O)N[C@@H](CCCNC(=N)N)C(=O)N[C@@H](CC(N)=O)C(=O)N[C@@H](CC(C)C)C(=O)N[C@H](C(=O)N1CCC[C@H]1C(=O)N[C@@H](CCCNC(=N)N)C(=O)N[C@H](C(=O)N[C@@H](CCC(=O)O)C(=O)N[C@@H](CO)C(=O)O)[C@@H](C)O)C(C)C)[C@@H](C)CC)C(C)C)[C@@H](C)CC` [LL37 + ve_AcOH, reference compound], in test [2] (P. aeruginosa), the MBC was >256 mg/L and the MIC is >256 mg/L.

For the compound `CC[C@H](C)[C@H](NC(=O)[C@H](Cc1ccccc1)NC(=O)[C@@H]1CCCN1C(=O)[C@H](CC(C)C)NC(=O)[C@@H](N)Cc1ccccc1)C(=O)N[C@@H](C)C(=O)N[C@@H](CCCNC(=N)N)C(=O)N[C@@H](CC(C)C)C(=O)N[C@@H](C)C(=O)N[C@@H](C)C(=O)N[C@@H](CCCCN)C(=O)N[C@H](C(=O)N[C@@H](Cc1ccccc1)C(=O)N1CCC[C@H]1C(=O)N[C@@H](CO)C(=O)N[C@H](C(=O)N[C@H](C(=O)N[C@H]1CSSC[C@@H](C(=O)O)NC(=O)[C@H](CCCCN)NC(=O)[C@H](CCCCN)NC(=O)[C@H]([C@@H](C)O)NC(=O)[C@H](C(C)C)NC(=O)[C@H](CO)NC1=O)[C@@H](C)CC)[C@@H](C)CC)C(C)C` [Peptide R4] (H-FLPFIARLAAKVFPSIICSVTKKC-OH; disulfide 18-24; N-terminus and C-terminus assumed), the MBC in test [5] (Mycobacterium (MC^2155)) is 4 mg/L (≈ 1.51 µM); in test [2] (ATCC 10148) it was >256 mg/L; in test [3] (ATCC 6538), 4 mg/L (≈ 1.51 µM); in test [4] (ATCC 9723), 16 mg/L (≈ 6.03 µM). Also, the MIC in test [5] (Mycobacterium (MC^2155)) was 4 mg/L (≈ 1.51 µM); in test [2] (ATCC 10148), >256 mg/L; in test [3] (ATCC 6538), 4 mg/L; in test [4] (ATCC 9723), 16 mg/L.

The values above are taken from US12280090B2, “Antimicrobial peptides” (priority 2018, dated 2025).
